ChEMBL document CHEMBL6103565, “Current strategies in design and synthesis of antifungals hybrid and chimeric diazine derivatives” (Bioorg Med Chem, 2025)
Values after ≈ are worked out from the molar mass of the structure shown.

Legend:
[1] = test system: Candida albicans; assay: Antifungal activity against Candida albicans ATCC 90028 assessed as diameter of zone of inhibition; format: functional
[2] = test system: Nakaseomyces glabratus; assay: Antifungal activity against Candida glabrata ATCC 90030 assessed as reduction in microbial growth; format: functional
[3] = test system: Nakaseomyces glabratus; assay: Antifungal activity against Candida glabrata ATCC 90030 assessed as diameter of zone of inhibition; format: functional
[4] = test system: Candida albicans; assay: Antifungal activity against Candida albicans ATCC 90028 assessed as reduction in microbial growth; format: functional
[5] = test system: Candida tropicalis; assay: Antifungal activity against Candida tropicalis ATCC 750 assessed as reduction in microbial growth; format: functional
[6] = test system: Candida tropicalis; assay: Antifungal activity against Candida tropicalis ATCC 750 assessed as diameter of zone of inhibition; format: functional
[7] = test system: Sclerotinia sclerotiorum; assay: Fungicidal activity against Sclerotinia sclerotiorum assessed as fungal inhibitory rate at 200 ug/ml relative to control; format: functional
[8] = test system: Fusarium graminearum; assay: Fungicidal activity against Gibberella zeae assessed as fungal inhibitory rate at 200 ug/ml relative to control; format: functional
[9] = test system: Botryosphaeria dothidea; assay: Fungicidal activity against Botryosphaeria dothidea assessed as fungal inhibitory rate at 200 ug/ml relative to control; format: functional
[10] = test system: Candida albicans; assay: Antifungal activity against Candida albicans MTCC 227 by disc diffusion method; format: functional, organism-based
[11] = test system: Candida albicans; assay: Antifungal activity against Candida albicans MTCC 227 assessed as reduction in microbial growth after 48 hrs by broth dilution method; format: functional
[12] = test system: Aspergillus niger; assay: Antifungal activity against Aspergillus niger MTCC 282 by disc diffusion method; format: functional, organism-based
[13] = test system: Aspergillus clavatus; assay: Antifungal activity against Aspergillus […] MTCC 1323 assessed as reduction in microbial growth after 48 hrs by broth dilution method; format: functional
[14] = test system: Aspergillus niger; assay: Antifungal activity against Aspergillus niger MTCC 282 assessed as reduction in microbial growth after 48 hrs by broth dilution method; format: functional

Cc1ccc(C2C3=C(N=C4SC=CN42)[C@@]2(C)CC[C@H]4[C@@H](CC=C5C[C@@H](O)CC[C@@]54C)[C@@H]2C3)cc1 (some centres undefined)
inhibition zone (IZ) [1]: 13 mm | MIC [2]: > 1000 µg/mL | inhibition zone (IZ) [3]: 15 mm | MIC [4]: 700 µg/mL | MIC [5]: > 1000 µg/mL | inhibition zone (IZ) [6]: 15 mm

Cc1ncc(NC(=O)c2cc(Cl)nn2-c2ncccc2Cl)c(-c2noc(C)n2)n1
inhibition at 200 µg/mL [7]: 54.1% | inhibition at 200 µg/mL [8]: 54.9% | inhibition at 200 µg/mL [9]: 85.9%

CC(=O)N1N=C(C2=C(C)NC(=O)NC2c2ccc(F)cc2)OC1c1ccc([N+](=O)[O-])cc1 (centres undefined)
EC50 [10]: 0.14 µg/mL (≈ 0.319 µM) | MIC [11]: 100 µg/mL | EC50 [12]: 0.14 µg/mL (≈ 0.319 µM) | MIC [13]: 50 µg/mL | MIC [14]: 50 µg/mL
